Values quoted from earlier work in patent US20040028613A1, “Dopamine agonist formulations for enhanced central nervous system delivery” (Nastech Pharmaceutical Company Inc, priority 2001, published 2004).

How the values were obtained:
[1] = test system: ciliary function in epithelial cell cultures
[2] = intraduodenal, rats, with 1% (w/v) saline dispersion of polycarbophil
[3] = subcutaneous injection
[4] = test system: ciliary movement of human adenoid tissue; details: for time in which ciliary movement was inhibited / inhibitory effect on ciliary movement at the end of 60 mm: 0.3%
[5] = 2.5 mg to 3.5 mg, hypotension, nausea, vomiting, impaired vision, diaphoresis, ashen coloring
[6] = aqueous solution, physiologic pH

## 2-alkyl-4-hydroxyquinolines [pyo compound]
[1]
  concentration producing ciliostasis / inhibiting ciliary motility: 50 µg/mL

## 9-desglycinamide, 8-arginine vasopressin
[2]
  increase of bioavailability compared to aqueous solution without polymer: 3-5 fold

## CN1CCc2cccc3c2[C@H]1Cc1ccc(O)c(O)c1-3 [SC Inj (ref. 1), apomorphine]
[3]; prior art, patients
  CSF level at 20 min: 1.08 ng/mL
  Plasma level at 20 min: 0.02504 µg/mL

## CC(=O)OC1CC2(C)C(CC(O)C3C4(C)CCC(O)C(C)C4CCC32C)C1=C(CCCC(C)C)C(=O)NCCS(=O)(=O)O (stereo not drawn) [STDHF, sodium taurodihydrofusidate]
[4]; concentration of 0.3%, at 60 minutes
  inhibition of ciliary movement: total

## CN1CCc2cccc3c2[C@H]1Cc1ccc(O)c(O)c1-3 [apomorphine]
[5]
  side effects of intranasal delivery: extensive and serious side effects
[3]
  CSF levels of active drug as percentage of levels found in the plasma: less than 5%

## CC(C)CC(N)B(O)O (stereo not drawn) [boro-leucine]
aminopeptidases
  effectiveness in enzyme inhibition relative to bestatin: more than 100 times
  effectiveness in enzyme inhibition relative to puromycin: more than 1000 times

## C[C@H](CCC(=O)O)[C@H]1CC[C@H]2[C@@H]3CC[C@@H]4C[C@H](O)CC[C@]4(C)[C@H]3C[C@H](O)[C@]12C [deoxycholate, deoxycholic acid]
[4]
  time in which ciliary movement was inhibited: 20 mm

## CCN(CC)/[N+]([O-])=N/O.CCNCC [diethylamine/NO]
[6]
  rate (time) of NO release: < 3 min

## NCCN(CCN)/[N+]([O-])=N/O [diethylenetriamine/NO (DETANO)]
[6]
  rate (time) of NO release: approximately 20 hours

## C[C@H](CCC(=O)NCC(=O)O)[C@H]1CC[C@H]2[C@@H]3[C@H](O)C[C@@H]4C[C@H](O)CC[C@]4(C)[C@H]3C[C@H](O)[C@]12C [glycocholate, glycocholic acid]
[4]
  inhibitory effect on ciliary movement at the end of 60 mm: no inhibitory effect

## C[C@H](CCC(=O)NCCS(=O)(=O)O)[C@H]1CC[C@H]2[C@@H]3[C@H](O)C[C@@H]4C[C@H](O)CC[C@]4(C)[C@H]3C[C@H](O)[C@]12C [taurocholate, taurocholic acid]
[4]
  inhibitory effect on ciliary movement at the end of 60 mm: no inhibitory effect

## Laureth-9
[4]
  time in which ciliary movement was inhibited: 10 mm
